From patent US20250170098A1, “MOLECULAR JACKHAMMER FOR MECHANICAL DESTRUCTION OF CELLULAR STRUCTURE” (William Marsh Rice University, priority 2022, published 2025)

System: B16-F10 melanoma tumors
Assay: Treatment of B16-F10 melanoma tumors in C57BL/6 mice
Format: in vivo, mouse
Procedure: Injection of B16-F10 cells subcutaneously in C57BL/6J mice to generate the melanoma tumors. The B16-F10 cells were cultured as described before. Cells were harvested from sub-confluent plates, ˜90%, and fresh media was added to the cells the day before harvesting. The cells were harvested using 0.05% trypsin-EDTA (Gibco, 25-300-054). The harvested cells were re-dispersed in DMEM media without supplements at 1×10^6 cells mL^−1. The cell suspension was kept in ice. Then 100 μL of cells were injected per mouse (this was 100,000 cells per mouse) subcutaneously in the right flank of a 7-8-week-old female mouse (C57BL/6J), in which the hair in the right flank was previously depilated using a shaver. […] Starting at day 12 the tumors were measured using a caliper. […] The volume of the tumor was calculated as: (½)×length×width×height. When the height was not possible to measure in the case of the tumors which were too small (usually <100 mm^3), then the tumor volume was calculated as: (½)×length×width^2. […]
Treatment of B16-F10 tumors with Cy7.5-amine and NIR 730 nm light. […] The light intensity was measured using an Optical Power Meter from Thorlabs, sensor model S302C and console model PM100D. While under light treatment the temperature at the tumor area was measured using an IR thermal camera (Model: Compact Seek Thermal for Android. Seek Thermal, Inc. Santa Barbara, CA). […]

Q: What does the source list for `CN1/C(=C\C=C2C=C(/C=C/C3=[N+](CCCCCC(=O)NCCCCCCN)c4ccc5ccccc5c4C3(C)C)CCC\2)C(C)(C)c2c1ccc1ccccc21` [Cy7.5-amine]?
A: size of the B16-F10 tumors (8 μg in 50 μL PBS intratumorally, 730 nm LED at for 5 min): significantly reduced; temperature increase of B16-F10 tumors under light treatment (Cy7.5-amine with light, for 5 min): ~5 °C
